From PubChem BioAssay AID463074 (Broad Institute, 2010)
The source made the active and inactive calls.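 The calls were made as follows: active = AC50 no more than tenfold above the top dose tested, or full inhibition at every dose with a flat fit (cut at about 19 µM in these data); inconclusive = flat curve fit with inhibition between 30% and 70%, or poor fit; inactive = AC50 more than tenfold above the top dose tested.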

Tested on: HMLE_sh_eGFP viability, CellTiter-Glo luminescence, 72 h
Test: cytotoxicity in HMLE control line with eGFP shRNA, dose response, counter-screen for HMLE_sh_ECad selective toxicity project, cell-based, HMLE_sh_eGFP, luminescence (AID 463074);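 also: counterscreen control line to flag general toxicity for the HMLE_sh_ECad screen; potency for loss of viability as luminescence drops below DMSO wells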

C/C(=N\N=C(/N)SC1CC(=O)N(c2ccc(Cl)c(Cl)c2)C1=O)c1cccs1 (stereo not given)
AC50: 7.3 µM

Cc1cc(C)c(NC(=O)CSCc2c(C)noc2C)c(C)c1
AC50: > 19.5 µM (inactive)

CC1(C)C[C@@H]2C[C@@](C)(CN2C(=O)c2cc(COc3cccc(C(F)(F)F)c3)on2)C1
AC50: 4.8 µM

COc1cc(NC(=O)Nc2cccc(Cl)c2)c(OC)cc1NC(=O)CN1CCCCC1
AC50: 4.3 µM

COc1cc(Br)cc(/C=C/c2ccc3cccc(O)c3n2)c1O
AC50: 3.91 µM

CCc1ccc2nc(SCC(=O)Nc3ccccc3N3CCOCC3)c(C#N)cc2c1
AC50: 2.73 µM

C[C@@H](CSc1ccc(Br)cc1)CN1CC[C@H](NC(=O)OCc2ccccc2)CCC1=O
AC50: 5.5 µM

CCCCc1ccc(/C(C)=N/Nc2cc(N3CCOCC3)nc(C)n2)cc1
AC50: 4.99 µM

Cc1ccc(F)c([C@H]2C3C=CCC(c4ccccc4)C3C(=O)N2Cc2ccccc2)c1 (stereo not given in full)
AC50: 6.52 µM

CC1(C)CN(c2ccccc2)N(C(=O)c2ccc(F)cc2)C1=O
AC50: 5.6 µM

CC(C)(C)OC(=O)[C@H](Cc1ccccc1)NC(=O)c1[nH]cnc1C(=O)Nc1ccc(Cl)cc1
AC50: 3.92 µM

O=Cc1cc2ccccc2nc1SCc1ccc(Cl)c(Cl)c1
AC50: 6.37 µM

CCN1CCN(C(=S)Nc2sc(C)c(-c3ccccc3)c2C(=O)OC)CC1
AC50: 4.72 µM

O=C(/C=C/c1ccc(Cl)cc1)c1ccc([N+](=O)[O-])o1
AC50: 2.19 µM

COc1ccccc1NC(=O)c1c(Nc2ccccc2F)sc(C(=O)Nc2cccc(Cl)c2)c1N
AC50: 2.95 µM

CN(C)CCNC(=O)COc1ccc(C23CC4CC(CC(C4)C2)C3)cc1
AC50: 4.09 µM

CCC(O)(CC)C(=O)N/N=C/c1cc(Br)cc(Br)c1O
AC50: 19.8 µM

Cc1ccn2c(NCc3ccccc3)c(-c3cccc(SC4CCCCC4)c3)nc2c1
AC50: 4.45 µM

Oc1ccccc1-n1c(-c2ccccc2)ccc1-c1ccccc1
AC50: 7.62 µM

CC1(NC(=O)CC(c2ccccc2)(c2ccccc2)c2ccccc2)CCN(CCCc2ccccc2)C1=O (stereo not given)
AC50: 6.85 µM

CCN1CCN(Cc2ccc(NC(=O)c3cc(NC(=O)c4cncc(-c5cccs5)c4)cc(OC)c3)cc2C(F)(F)F)CC1
AC50: 3.52 µM

COc1ccc(-c2sc3ccc(OC)cc3c2C#Cc2ccccn2)cc1
AC50: 5.88 µM

Oc1ccc(Br)cc1/C=N/NC(=S)NCCc1ccccc1
AC50: 4.19 µM

CCCCCCSc1cccc(-c2nc3cc(C)ccn3c2NC2CCCCC2)c1
AC50: 9.77 µM

O=C(/C=C/c1ccccc1)NNc1ccc(Cl)cc1
AC50: 12 µM

CC1=CC(C)(C)N(S(=O)(=O)c2ccc(F)cc2)c2ccc(C)cc21
AC50: 2.61 µM

O=C1/C(=C\c2cccnc2)CN(Cc2ccccc2)C/C1=C\c1cccnc1
AC50: 3.9 µM

CC(=O)N1c2ccc(Cl)cc2C2C=CCC2C1c1cccc2ccccc12 (stereo not given)
AC50: 5.36 µM

O=C(Cc1ccc(F)cc1)Nc1nnc(SCC(=O)N2CCCCC2)s1
AC50: > 19.5 µM (inactive)

NC(=O)CC(NC(=O)Cc1ccc(Br)cc1)c1ccc(N2CCC(Cc3ccccc3)CC2)c([N+](=O)[O-])c1 (stereo not given)
AC50: 14.7 µM

NC(=O)CC(NC(=O)Cc1cccc2ccccc12)c1ccc(N2CCc3ccccc3C2)c([N+](=O)[O-])c1 (stereo not given)
AC50: 17.6 µM

CC1(C)CC[C@]2(C(=O)O)CC[C@]3(C)C(=CC[C@@H]4[C@@]5(C)CC[C@H](O[C@@H]6O[C@H](C(=O)O)[C@@H](O)[C@H](O[C@@H]7OC[C@H](O)[C@H](O)[C@H]7O)[C@H]6O)C(C)(C)[C@@H]5CC[C@]43C)[C@@H]2C1
AC50: 5.14 µM

CCCCNc1c(-c2cccc(-c3cc(C(C)=O)cs3)c2)nc2ccc(C)cn12
AC50: 3.48 µM

CN(Cc1cnc2nc(N)nc(N)c2n1)c1ccc(C(=O)N[C@@H](CCC(=O)O)C(=O)O)cc1
AC50: < 0.16 µM

COc1ccc(CN(CCC(c2ccccc2)c2ccc(OC(C)C)cc2)C(=O)CCl)cc1OC (stereo not given)
AC50: 1.67 µM

CC(C)Cc1nc2oc3c(Cl)ncnc3c2c2c1CCC2
AC50: 3.72 µM

Cc1ccc(-c2cc(-c3ccccc3C)[nH]n2)c(O)c1
AC50: 8.64 µM

O=C(O)CCN1C(=O)C(=C2CCCCCC2)SC1=S
AC50: > 19.5 µM (inactive)

O=c1cc(-c2ccccc2)[nH]n1-c1nc2ccccc2s1
AC50: 5.53 µM

CCCCC1CCC(C(=O)N(CC(C)C)c2c(N)n(Cc3ccccc3)c(=O)[nH]c2=O)CC1 (stereo not given)
AC50: 4.62 µM
